{
  "source": "patent US9730940B2",
  "about": "“Purine inhibitors of human phosphatidylinositol 3-kinase delta” (priority 2012, dated 2017)",
  "data": [
    {"biological_target": "PI3K-alpha (Homo sapiens (Human), UniProt P42336)", "sequence (P42336 whole entry, looked up, canonical isoform)": "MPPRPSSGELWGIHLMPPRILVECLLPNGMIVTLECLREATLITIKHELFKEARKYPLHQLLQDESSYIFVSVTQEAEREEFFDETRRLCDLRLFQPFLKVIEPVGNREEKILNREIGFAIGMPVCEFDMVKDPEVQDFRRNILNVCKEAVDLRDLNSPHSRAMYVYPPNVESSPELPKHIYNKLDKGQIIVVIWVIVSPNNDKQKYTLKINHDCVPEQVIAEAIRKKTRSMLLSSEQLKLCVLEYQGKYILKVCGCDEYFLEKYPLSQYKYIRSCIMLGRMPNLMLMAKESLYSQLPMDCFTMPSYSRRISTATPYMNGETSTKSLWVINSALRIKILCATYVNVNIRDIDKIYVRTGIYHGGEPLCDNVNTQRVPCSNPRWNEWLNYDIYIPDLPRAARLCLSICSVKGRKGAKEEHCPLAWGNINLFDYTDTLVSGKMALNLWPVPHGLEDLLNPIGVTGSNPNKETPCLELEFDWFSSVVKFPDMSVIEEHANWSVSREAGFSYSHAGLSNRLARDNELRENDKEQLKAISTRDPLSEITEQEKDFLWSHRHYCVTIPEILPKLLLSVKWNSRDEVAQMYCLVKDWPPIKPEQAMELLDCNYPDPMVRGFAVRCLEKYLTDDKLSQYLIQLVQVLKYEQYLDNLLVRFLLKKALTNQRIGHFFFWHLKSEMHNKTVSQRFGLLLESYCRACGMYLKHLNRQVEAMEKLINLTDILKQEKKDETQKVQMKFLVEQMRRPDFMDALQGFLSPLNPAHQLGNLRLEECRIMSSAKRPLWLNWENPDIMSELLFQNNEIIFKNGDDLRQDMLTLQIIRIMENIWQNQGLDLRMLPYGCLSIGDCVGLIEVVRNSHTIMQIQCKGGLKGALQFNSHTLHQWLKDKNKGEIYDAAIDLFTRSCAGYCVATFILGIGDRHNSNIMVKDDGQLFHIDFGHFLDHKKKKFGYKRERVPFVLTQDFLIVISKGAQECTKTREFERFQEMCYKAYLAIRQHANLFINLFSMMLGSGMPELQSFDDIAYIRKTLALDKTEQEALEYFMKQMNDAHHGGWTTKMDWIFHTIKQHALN", "sequence (P27986 whole entry partner, looked up, canonical isoform)": "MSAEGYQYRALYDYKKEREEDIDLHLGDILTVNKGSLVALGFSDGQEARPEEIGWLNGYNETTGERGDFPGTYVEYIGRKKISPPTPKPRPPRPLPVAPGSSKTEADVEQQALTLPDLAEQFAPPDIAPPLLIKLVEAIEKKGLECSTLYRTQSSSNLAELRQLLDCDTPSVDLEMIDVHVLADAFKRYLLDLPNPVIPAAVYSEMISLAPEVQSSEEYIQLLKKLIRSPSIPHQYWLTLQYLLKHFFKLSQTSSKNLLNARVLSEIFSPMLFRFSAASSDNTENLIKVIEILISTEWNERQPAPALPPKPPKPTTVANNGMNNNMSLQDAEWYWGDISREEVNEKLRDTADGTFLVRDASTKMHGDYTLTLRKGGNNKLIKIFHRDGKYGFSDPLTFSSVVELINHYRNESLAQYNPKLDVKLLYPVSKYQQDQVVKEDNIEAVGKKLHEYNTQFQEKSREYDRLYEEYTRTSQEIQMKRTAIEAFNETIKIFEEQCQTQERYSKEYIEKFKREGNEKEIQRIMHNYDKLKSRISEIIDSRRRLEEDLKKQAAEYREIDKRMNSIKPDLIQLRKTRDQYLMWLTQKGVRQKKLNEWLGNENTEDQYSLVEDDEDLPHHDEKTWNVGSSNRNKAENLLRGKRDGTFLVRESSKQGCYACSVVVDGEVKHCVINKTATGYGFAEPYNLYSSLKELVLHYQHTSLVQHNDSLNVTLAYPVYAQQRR", "assay": "HTRF PI3K biochemical assay, alpha isoform", "conditions": "ratio PI3K-alpha IC50 value/PI3K-delta IC50 value", "values": [
      {"compound": "CCn1c(-c2cnc(C)nc2)nc2c(O[C@H]3CCN(C(=O)OC(C)(C)C)[C@@H]3C)ncnc21", "note": "[Compound 1-48, tert-butyl (2R,3S)-3-{[9-ethyl-8-(2-methylpyrimidin-5-yl)-9H-purin-6-yl]oxy}-2-methylpyrrolidine-1-carboxylate]", "Relative Selectivity versus PI3Kalpha": ">10"},
      {"compound": "CCn1c(-c2cnc(C)nc2)nc2c(O[C@H]3CCN(C(=O)OCCN(C)C)C3)ncnc21", "note": "[Compound 1-49, 2-(dimethylamino)ethyl (3S)-3-{[9-ethyl-8-(2-methylpyrimidin-5-yl)-9H-purin-6-yl]oxy}pyrrolidine-1-carboxylate]", "Relative Selectivity versus PI3Kalpha": ">10"},
      {"compound": "CCn1c(-c2ccc(OC(F)F)nc2)nc2c(O[C@H]3CCN(C(=O)OC(C)(C)C)C3)ncnc21", "note": "[Compound 1-51, tert-butyl (3S)-3-({8-[6-(difluoromethoxy)pyridin-3-yl]-9-ethyl-9H-purin-6-yl}oxy)pyrrolidine-1-carboxylate]", "Relative Selectivity versus PI3Kalpha": ">10"},
      {"compound": "CCn1ncc(-c2nc3c(OC4CCN(C(=O)c5ccccc5)C4)ncnc3n2C)c1C", "note": "(stereo not shown) [Compound 2-1, 8-(1-ethyl-5-methyl-1H-pyrazol-4-yl)-9-methyl-6-{[1-(phenylcarbonyl)pyrrolidin-3-yl]oxy}-9H-purine]", "Relative Selectivity versus PI3Kalpha": ">10"},
      {"compound": "CCn1ncc(-c2nc3c(OC4CCN(C(=O)C5CCCC5)C4)ncnc3n2C)c1C", "note": "(stereo not shown) [Compound 2-2, 6-{[1-(cyclopentylcarbonyl)pyrrolidin-3-yl]oxy}-8-(1-ethyl-5-methyl-1H-pyrazol-4-yl)-9-methyl-9H-purine]", "Relative Selectivity versus PI3Kalpha": ">10"},
      {"compound": "CCn1ncc(-c2nc3c(OC4CCN(C(=O)c5ccc6ccccc6c5)C4)ncnc3n2C)c1C", "note": "(stereo not shown) [Compound 2-3, 8-(1-ethyl-5-methyl-1H-pyrazol-4-yl)-9-methyl-6-{[1-(naphthalen-2-ylcarbonyl)pyrrolidin-3-yl]oxy}-9H-purine]", "Relative Selectivity versus PI3Kalpha": ">10"},
      {"compound": "CCn1ncc(-c2nc3c(OC4CCN(C(=O)C5CCCCC5)C4)ncnc3n2C)c1C", "note": "(stereo not shown) [Compound 2-4, 6-{[1-(cyclohexylcarbonyl)pyrrolidin-3-yl]oxy}-8-(1-ethyl-5-methyl-1H-pyrazol-4-yl)-9-methyl-9H-purine]", "Relative Selectivity versus PI3Kalpha": ">10"},
      {"compound": "CCn1ncc(-c2nc3c(OC4CCN(C(=O)COC)C4)ncnc3n2C)c1C", "note": "(stereo not shown) [Compound 2-5, 8-(1-ethyl-5-methyl-1H-pyrazol-4-yl)-6-{[1-(methoxyacetyl)pyrrolidin-3-yl]oxy}-9-methyl-9H-purine]", "Relative Selectivity versus PI3Kalpha": ">10"},
      {"compound": "CCn1ncc(-c2nc3c(OC4CCN(C(=O)CC5CCOCC5)C4)ncnc3n2C)c1C", "note": "(stereo not shown) [Compound 2-6, 8-(1-ethyl-5-methyl-1H-pyrazol-4-yl)-9-methyl-6-{[1-(tetrahydro-2H-pyran-4-ylacetyl)pyrrolidin-3-yl]oxy}-9H-purine]", "Relative Selectivity versus PI3Kalpha": ">10"},
      {"compound": "CCn1ncc(-c2nc3c(OC4CCN(C(=O)c5cnco5)C4)ncnc3n2C)c1C", "note": "(stereo not shown) [Compound 2-7, 8-(1-ethyl-5-methyl-1H-pyrazol-4-yl)-9-methyl-6-{[1-(1,3-oxazol-5-ylcarbonyl)pyrrolidin-3-yl]oxy}-9H-purine]", "Relative Selectivity versus PI3Kalpha": ">10"},
      {"compound": "CCn1ncc(-c2nc3c(O[C@H]4CCN(C(=O)C5CCOCC5)C4)ncnc3n2C)c1C", "note": "[Compound 2-8, (S)-(3-((8-(1-ethyl-5-methyl-1H-pyrazol-4-yl)-9-methyl-9H-purin-6-yl)oxy)pyrrolidin-1-yl)(tetrahydro-2H-pyran-4-yl)methanone]", "Relative Selectivity versus PI3Kalpha": ">10"},
      {"compound": "CCn1ncc(-c2nc3c(O[C@@H]4CCN(C(=O)C5CCOCC5)C4)ncnc3n2C)c1C", "note": "[Compound 2-9, (R)-(3-((8-(1-ethyl-5-methyl-1H-pyrazol-4-yl)-9-methyl-9H-purin-6-yl)oxy)pyrrolidin-1-yl)(tetrahydro-2H-pyran-4-yl)methanone]", "Relative Selectivity versus PI3Kalpha": 3},
      {"compound": "CCn1ncc(-c2nc3c(O[C@H]4CCN(C(=O)C5(C)CCOCC5)C4)ncnc3n2C)c1C", "note": "[Compound 2-10, 8-(1-ethyl-5-methyl-1H-pyrazol-4-yl)-9-methyl-6-({(3S)-1-[(4-methyltetrahydro-2H-pyran-4-yl)carbonyl]pyrrolidin-3-yl}oxy)-9H-purine]", "Relative Selectivity versus PI3Kalpha": ">10"},
      {"compound": "CCn1ncc(-c2nc3c(OC4CCN(C(=O)C5CCOCC5)CC4)ncnc3n2C)c1C", "note": "[Compound 2-11, (4-((8-(1-ethyl-5-methyl-1H-pyrazol-4-yl)-9-methyl-9H-purin-6-yl)oxy)piperidin-1-yl)(tetrahydro-2H-pyran-4-yl)methanone]", "Relative Selectivity versus PI3Kalpha": 2},
      {"compound": "CCC(=O)N1CCC(Oc2ncnc3c2nc(-c2cnn(CC)c2C)n3C)CC1", "note": "[Compound 2-14, 1-(4-((8-(1-ethyl-5-methyl-1H-pyrazol-4-yl)-9-methyl-9H-purin-6-yl)oxy)piperidin-1-yl)propan-1-one]", "Relative Selectivity versus PI3Kalpha": 1},
      {"compound": "CCn1ncc(-c2nc3c(O[C@H]4CCN(C(=O)CC#N)C4)ncnc3n2C)c1C", "note": "[Compound 2-15, 3-[(3S)-3-{[8-(1-ethyl-5-methyl-1H-pyrazol-4-yl)-9-methyl-9H-purin-6-yl]oxy}pyrrolidin-1-yl]-3-oxopropanenitrile]", "Relative Selectivity versus PI3Kalpha": ">10"},
      {"compound": "CCn1ncc(-c2nc3c(O[C@H]4CCN(C(=O)C5CC5)C4)ncnc3n2C)c1C", "note": "[Compound 2-16, 6-{[(3S)-1-(cyclopropylcarbonyl)pyrrolidin-3-yl]oxy}-8-(1-ethyl-5-methyl-1H-pyrazol-4-yl)-9-methyl-9H-purine]", "Relative Selectivity versus PI3Kalpha": ">10"},
      {"compound": "CCn1ncc(-c2nc3c(O[C@H]4CCN(C(=O)C5CCCO5)C4)ncnc3n2C)c1C", "note": "(stereo partly drawn) [Compound 2-17, 8-(1-ethyl-5-methyl-1H-pyrazol-4-yl)-9-methyl-6-{[(3S)-1-(tetrahydrofuran-2-ylcarbonyl)pyrrolidin-3-yl]oxy}-9H-purine]", "Relative Selectivity versus PI3Kalpha": ">10"},
      {"compound": "CCn1ncc(-c2nc3c(O[C@H]4CCN(C(=O)c5ccc(N6CCN(C)CC6)cc5)C4)ncnc3n2C)c1C", "note": "[Compound 2-21, 8-(1-ethyl-5-methyl-1H-pyrazol-4-yl)-9-methyl-6-{[(3S)-1-{[4-(4-methylpiperazin-1-yl)phenyl]carbonyl}pyrrolidin-3-yl]oxy}-9H-purine]", "Relative Selectivity versus PI3Kalpha": 1},
      {"compound": "CCn1ncc(-c2nc3c(O[C@H]4CCN(C(=O)c5cccnc5)C4)ncnc3n2C)c1C", "note": "[Compound 2-22, 8-(1-ethyl-5-methyl-1H-pyrazol-4-yl)-9-methyl-6-{[(3S)-1-(pyridin-3-ylcarbonyl)pyrrolidin-3-yl]oxy}-9H-purine]", "Relative Selectivity versus PI3Kalpha": ">10"},
      {"compound": "CCn1ncc(-c2nc3c(O[C@H]4CCN(C(=O)C5CCOC(C)(C)C5)C4)ncnc3n2C)c1C", "note": "(stereo partly drawn) [Compound 2-24, 6-({(3S)-1-[(2,2-dimethyltetrahydro-2H-pyran-4-yl)carbonyl]pyrrolidin-3-yl}oxy)-8-(1-ethyl-5-methyl-1H-pyrazol-4-yl)-9-methyl-9H-purine]", "Relative Selectivity versus PI3Kalpha": ">10"},
      {"compound": "CCC(=O)N1CC[C@H](Oc2ncnc3c2nc(-c2cnc(C)nc2)n3CC)C1", "note": "[Compound 2-25, 9-ethyl-8-(2-methylpyrimidin-5-yl)-6-{[(3S)-1-propanoylpyrrolidin-3-yl]oxy}-9H-purine]", "Relative Selectivity versus PI3Kalpha": ">10"},
      {"compound": "CCn1c(-c2cnc(C)nc2)nc2c(O[C@H]3CCN(C(=O)C4CCOCC4)C3)ncnc21", "note": "[Compound 2-26, 9-ethyl-8-(2-methylpyrimidin-5-yl)-6-{[(3S)-1-(tetrahydro-2H-pyran-4-ylcarbonyl)pyrrolidin-3-yl]oxy}-9H-purine]", "Relative Selectivity versus PI3Kalpha": ">10"},
      {"compound": "CCn1ncc(-c2nc3c(O[C@H]4CCN(C(=O)c5coc(C)n5)C4)ncnc3n2C)c1C", "note": "[Compound 2-27, 8-(1-ethyl-5-methyl-1H-pyrazol-4-yl)-9-methyl-6-({(3S)-1-[(2-methyl-1,3-oxazol-4-yl)carbonyl]pyrrolidin-3-yl}oxy)-9H-purine]", "Relative Selectivity versus PI3Kalpha": ">10"},
      {"compound": "CCn1ncc(-c2nc3c(O[C@H]4CCN(C(=O)c5nc(C)oc5C)C4)ncnc3n2C)c1C", "note": "[Compound 2-28, 6-({(3S)-1-[(2,5-dimethyl-1,3-oxazol-4-yl)carbonyl]pyrrolidin-3-yl}oxy)-8-(1-ethyl-5-methyl-1H-pyrazol-4-yl)-9-methyl-9H-purine]", "Relative Selectivity versus PI3Kalpha": ">10"},
      {"compound": "CCn1ncc(-c2nc3c(O[C@H]4CCN(C(=O)c5cnon5)C4)ncnc3n2C)c1C", "note": "[Compound 2-29, 8-(1-ethyl-5-methyl-1H-pyrazol-4-yl)-9-methyl-6-{[(3S)-1-(1,2,5-oxadiazol-3-ylcarbonyl)pyrrolidin-3-yl]oxy}-9H-purine]", "Relative Selectivity versus PI3Kalpha": 1},
      {"compound": "CCn1ncc(-c2nc3c(O[C@H]4CCN(C(=O)c5cnn(C(C)C)c5)C4)ncnc3n2C)c1C", "note": "[Compound 2-31, 8-(1-ethyl-5-methyl-1H-pyrazol-4-yl)-9-methyl-6-{[(3S)-1-{[1-(1-methylethyl)-1H-pyrazol-4-yl]carbonyl}pyrrolidin-3-yl]oxy}-9H-purine]", "Relative Selectivity versus PI3Kalpha": 5},
      {"compound": "CCn1ncc(-c2nc3c(O[C@H]4CCN(C(=O)c5ccno5)C4)ncnc3n2C)c1C", "note": "[Compound 2-32, 8-(1-ethyl-5-methyl-1H-pyrazol-4-yl)-6-{[(3S)-1-(isoxazol-5-ylcarbonyl)pyrrolidin-3-yl]oxy}-9-methyl-9H-purine]", "Relative Selectivity versus PI3Kalpha": ">10"},
      {"compound": "CCn1ncc(-c2nc3c(O[C@H]4CCN(C(=O)c5ccn[nH]5)C4)ncnc3n2C)c1C", "note": "[Compound 2-33, 8-(1-ethyl-5-methyl-1H-pyrazol-4-yl)-9-methyl-6-{[(3S)-1-(1H-pyrazol-5-ylcarbonyl)pyrrolidin-3-yl]oxy}-9H-purine]", "Relative Selectivity versus PI3Kalpha": ">10"},
      {"compound": "CCn1ncc(-c2nc3c(O[C@H]4CCN(C(=O)c5nonc5C)C4)ncnc3n2C)c1C", "note": "[Compound 2-35, 8-(1-ethyl-5-methyl-1H-pyrazol-4-yl)-9-methyl-6-({(3S)-1-[(4-methyl-1,2,5-oxadiazol-3-yl)carbonyl]pyrrolidin-3-yl}oxy)-9H-purine]", "Relative Selectivity versus PI3Kalpha": ">10"},
      {"compound": "CCn1ncc(-c2nc3c(O[C@H]4CCN(C(=O)c5ccnn5C)C4)ncnc3n2C)c1C", "note": "[Compound 2-36, 8-(1-ethyl-5-methyl-1H-pyrazol-4-yl)-9-methyl-6-({(3S)-1-[(1-methyl-1H-pyrazol-5-yl)carbonyl]pyrrolidin-3-yl}oxy)-9H-purine]", "Relative Selectivity versus PI3Kalpha": ">10"}
    ]}
  ]
}
